Antiviral activity and IC50 data for one compound are collected here from patent US8258116B2, “Combination therapy for the treatment of HCV infection” (Vertex Pharmaceuticals Incorporated, priority 2007, dated 2012).

Read-outs that look alike come from different tables or passages of the source.

The test system of one assay is HCV genotype 1. As to the kind of experiment: phase 1b trial (Study VX04-950-101). Type of assay: in vivo. The conditions noted are these: subjects infected with HCV genotype 1, phase 1b. The source says: The degree to which a subject responds to treatment and the rate at which viral rebound is observed could in part be due to genotypic differences in sensitivity to the protease inhibitor. The rapid replication rate of HCV, along with the poor fidelity of its polymerase, gives rise to an accumulation of mutations throughout its genome [P. Simmonds, “Genetic diversity and evolution of hepatitis C virus—15 years on,” J. Gen. Virol., 85, pp. 3173-88 (2004)]. The degree to which sequence variability in the protease region affects the catalytic efficiency of the enzyme or the binding of an inhibitor is not known. Additionally, the generation of numerous viral genomes with remarkable sequence variation presents potential problems of emerging drug resistant virus in subjects treated with antiviral therapy. Indeed, drug resistance against antiviral drugs, such as HIV protease inhibitors, is well documented [Johnson et al., Top. HIV Med., 12, pp. 119-24 (2004)]. […] Agents Chemother., 48, pp. 2260-6 (2004); Trozzi et al., “In vitro selection and characterization of hepatitis C virus serine protease variants resistant to an active-site peptide inhibitor,” J. Virol. 77, pp. 3669-79 (2003)]. […]

The test system of assay [1] is HCV replicon cells (wild-type clone 24-2, Huh-7). In words: 2-day Replicon assay with bDNA quantitation, checkerboard combination (Bliss independence / MacSynergy). Type of assay: cell-based. The conditions noted are these: VX-950 in the checkerboard experiment with the named polymerase inhibitor, read-out: VX-950 IC50. The procedure:
Huh-7 cells were propagated in Dulbecco's modified Eagle's medium (DMEM, JRH Biosciences, Lenexa, Kans.) supplemented with 10% heat-inactivated FBS (fetal bovine serum), 2 mM L-glutamine, and nonessential amino acids (JRH). The cells were transfected with an in vitro transcribed HCV replicon RNA identical to replicon 1377neo/NS3-3′/wt as described by Lohmann et al. (1999). Stable cell clones were selected and maintained in the presence of 250 μg/mL G418 (Invitrogen, Carlsbad, Calif.). One of the clones, 24-2, was used as the wild-type in the subsequent HCV replicon assays for combination studies. The HCV NS3 protease variant replicons were constructed in the background of the mADE wild-type replicon as described previously [Chao Lin et al., “In Vitro Resistance Studies of Hepatitis C Virus Serine Protease Inhibitors, VX-950 and BILN 2061: Structural Analysis Indicates Different Resistance Mechanisms,” Journal of Biological Chemistry, 279(17); pp. 17508-17514 (2004)]. The replicon cells were propagated in DMEM supplemented with 10% FBS, 2 mM L-glutamine, nonessential amino acids, and 250 μg/mL G418. The cells were split twice per week in fresh media upon reaching confluence. There are approximately 200-300 copies of HCV RNA per 24-2 replicon cell.
HCV replicon RNA from cells was measured using the Quantigene Discover XL kit (Panomics Inc., Fremont Calif.) as per the manufacturer's instructions. Briefly, compound-treated replicon cells were lysed and immobilized on to capture plates using HCV specific oligonucleotides (designed based on the 5′ UTR region of HCV 1b genome sequence AJ238799 in the GenBank database) over night and the relative amounts of captured RNA was measured using oligonucleotide probe sets as per the manufacturer's instructions.
On the day prior to the assay, 10,000 replicon cells were plated per well of a 96-well plate and allowed to attach and grow overnight in DMEM (Invitrogen, Carlsbad, Calif.) supplemented with 10% heat-inactivated FBS (JRH Biosciences, Lenexa, Kans.), 2 mM L-glutamine (Invitrogen), nonessential amino acids (Invitrogen) and 250 μg/ml G418 (Invitrogen). Next day, the medium was removed and antiviral agents that were serially diluted in DMEM containing 2% FBS and 0.5% DMSO (Sigma Chemical Co., St. Louis, Mo.) without G418, was added. The replicon cells were incubated with the antiviral agents for 48 h. HCV replicon RNA from cells was measured using the Quantigene Discover XL kit (Panomics Inc., Fremont Calif.) as per the manufacturer's instructions. Briefly, compound-treated replicon cells were lysed and immobilized onto capture plates using HCV specific oligonucleotides overnight and the relative amounts of captured RNA was measured using oligonucleotide probe sets as per the manufacturer's instructions. Unless indicated otherwise, each data point represents the average of three replicates. The IC50 is the concentration of the compound at which the HCV replicon RNA level in cells is reduced by 50% as compared to the untreated replicon cell controls. To monitor the effect of compounds on cell proliferation or cell viability, replicon cells were treated with serially diluted compounds for 48 h, after which cell viability was determined using a CellTiter Glo assay (Promega, Madison, Wis.). Each CC50 is derived from at least two replicates and is the concentration of the compound at which the number of viable cells is reduced by 50% as compared to untreated cell controls. The IC50 and CC50 was determined using 4-parameter curve fitting in the SoftMax Pro program (Molecular Devices, Sunnyvale, Calif.).
The effects of drug-drug combinations were evaluated using the Bliss independence model [W. R. Greco et al., “The search for synergy: a critical review from a response surface perspective,” Pharmacol. Rev., 47, pp. 331-385 (1995)]. The experimental data were analyzed by using MacSynergy, a three-dimensional analytical method developed by Prichard and Shipman [M. N. Prichard and C. […]
(In antiviral work, replicon cells carry a viral genome segment that copies itself.)

Consider `CCC[C@H](NC(=O)[C@@H]1[C@H]2CCC[C@H]2CN1C(=O)[C@@H](NC(=O)[C@@H](NC(=O)c1cnccn1)C1CCCCC1)C(C)(C)C)C(=O)C(=O)NC1CC1` [VX-950], for which the antiviral activity entry in the assay on HCV genotype 1 is recorded as “substantial antiviral activity”. For the same compound, the IC50 (as a rule, the point on the concentration scale where inhibition reaches its midpoint) in assay [1] (Hepatitis C virus, Huh-7, 48 h) turned out to be 310 nM; in assay [1] (48 h, with polymerase inhibitor of Formula I), 420 nM; in assay [1] (48 h, with polymerase inhibitor of Formula II), 340 nM.
